Residues, ends and D or L forms follow the SMILES beside them. *: point of attachment. Cbz = O=C(OCc1ccccc1)*
Experiments:
[1] = system: ETV2 protein levels; experiment: Proteasome inhibition experiment in R-VEC tubes; format: cell-based, human; conditions: R-VEC tubes at stabilization stage (4 weeks), 20 μM for 6 hrs vs DMSO, Western blot
Procedure: Cells were lysed into 1×SDS loading buffer (50 mM Tris-HCl pH 6.8, 5% beta-mercaptoethanol, 2% SDS, 0.01% bromophenol blue, 10% glycerol) followed by sonication (Bioruptor, 2×30 seconds at high setting). Proteins were solved on 5-15% gradient Tris-glycine SDS-PAGE and semi-dry transferred to nitrocellulose membranes. The following primary antibodies were used at indicated dilutions: Rap1 (CST, #2399, 1:1,000); RASGRP3 (CST, #3334, 1:1,000), GAPDH (CST, #5174, 1:10,000); AKT (CST, 34685, 1:5,000); p-S473-Akt (CST, #4060, 1:2,000); ETS1 (CST, #14069, 1,000); and ETV2 (Abcam, ab181847, 1:1,000). HRP-conjugated secondary antibodies and the ECL Prime Western Blotting System (GE Healthcare, RPN2232) were then used. Chemiluminescent signals were captured with a digital camera (Kindle Biosciences) and images of protein bands taken for quantification using ImageJ.
R-VEC vessels were prepared on Matrigel as described above. At stabilization stage (4 weeks), R-VEC tubes were treated with either 20 μM of MG132 (Selleck Chemicals) or DMSO for 6 hrs. The media was removed and the wells were washed once with PBS. R-VEC tubes were then incubated in a solution of 2 mg/ml Dispase (Sigma) for 45 mins at 37° C. to dissociate the tubes. 20 μM of MG132 (Selleck Chemicals) or DMSO was continuously provided during the dissociation period. […]

[2] = system: Rap1; experiment: Rap1 inhibition experiment, R-VEC tube formation; format: cell-based, human; conditions: R-VECs, 10 μM, 4 weeks
Procedure: Tube formation assays for endothelial cells with or without ETV2 were set up in 24 wells as described above. The next day, Rap1 inhibitor (GGTI-298, Tocris) resuspended in DMSO was added to the wells at a 1:1000 dilution at the final concentration of 10 μM, while the same amount of DMSO was added to the control wells. The inhibitor and media were changed every other day for 4 weeks. Images were obtained and calculated as described above at 1 week and 4 week time points.

With CC(C)C[C@@H](C=O)NC(=O)[C@H](CC(C)C)NC(=O)[C@H](CC(C)C)NC(=O)OCc1ccccc1 [MG132] (Cbz-Leu-Leu-Leu-aldehyde) the “ETV2 protein levels restored” value [1] was “six-fold”.
For COC(=O)[C@H](CC(C)C)NC(=O)c1ccc(NC[C@@H](N)CS)cc1-c1cccc2ccccc12 [GGTI298], the lumen ([2]; confocal and electron microscopy) was “no lumen was present” and the vessel formation ([2]; vs DMSO) was “significantly reduced”.

Reference: patent US12576114B2, “Methods of functional vascularization of pancreatic islets and beta-cell organoids” (CORNELL UNIVERSITY, priority 2019, dated 2026)
